Laboratory results from ChEMBL document CHEMBL5500383, “Recent advances and future directions on small molecule VEGFR inhibitors in oncological conditions” (Eur J Med Chem, 2024).
pIC50: −log10 of the molar value. Values after ≈ are worked out from the molar mass of the structure shown. Blank lines part the entries; values can stand above or below the compound they belong to.

Experiments:
Histone deacetylase 4 = Histone deacetylase 4 (Homo sapiens, UniProt P56524); assay: Inhibition of HDAC4 (unknown origin)
T47D = assay: Antiproliferative activity against human T47D cells assessed as growth inhibition at 10 uM after 48 hrs by sulforhodamine B assay relative to control; type: functional; design: scale not given: the % may be the effect or the level left
A498 [1] = assay: Antiproliferative activity against human A498 cells assessed as growth inhibition at 10 uM after 48 hrs by sulforhodamine B assay relative to control; type: functional; design: scale not given: the % may be the effect or the level left
A498 [2] = assay: Cytotoxicity against human A498 cells assessed as reduction in cell viability incubated for 48 hrs by MTT assay; type: functional, cell-based; conditions: A498, 48 h
CAKI-1 = assay: Cytotoxicity against human CAKI-1 cells assessed as reduction in cell growth incubated for 48 hrs by MTT assay; type: functional, cell-based; conditions: CAKI-1, 48 h
HepG2 [3] = assay: Anticancer activity against human HepG2 cells assessed as reduction in cell growth incubated for 24 hrs by MTT assay; type: functional, cell-based; conditions: HepG2, 24 h
[4] = Acute toxicity in ip dosed Swiss albino mouse assessed as lethal dose; type: organism-based; conditions: in vivo, read-out: ALD50
MCF7 [5] = assay: Cytotoxicity against human MCF7 cells assessed as inhibition of cell growth incubated for 48 hrs by MTT assay; type: functional, cell-based; conditions: MCF7, 48 h
PC-3 [6] = assay: Cytotoxicity against human PC-3 cells assessed as inhibition of cell growth incubated for 48 hrs by MTT assay; type: functional, cell-based; conditions: PC-3, 48 h
HCT-116 [7] = assay: Cytotoxicity against human HCT-116 cells assessed as inhibition of cell growth incubated for 48 hrs by MTT assay; type: functional, cell-based; conditions: HCT-116, 48 h
HepG2 [8] = assay: Cytotoxicity against human HepG2 cells assessed as inhibition of cell growth incubated for 48 hrs by MTT assay; type: functional, cell-based; conditions: HepG2, 48 h
[9] = molecular target: T1, Vascular endothelial growth factor receptor 2 (Homo sapiens, UniProt P35968); assay: Inhibition of VEGFR2 (unknown origin)
HepG2 [10] = assay: Antiproliferative activity against human HepG2 cells assessed as reduction in cell viability incubated for 24 hrs by MTT assay; type: functional, cell-based; conditions: HepG2, 24 h
MCF7 [11] = assay: Antiproliferative activity against human MCF7 cells assessed as reduction in cell viability incubated for 24 hrs by MTT assay; type: functional, cell-based; conditions: MCF7, 24 h
PC-3 [12] = assay: Antiproliferative activity against human PC-3 cells assessed as reduction in cell viability incubated for 24 hrs by MTT assay; type: functional, cell-based; conditions: PC-3, 24 h
HL-60 = assay: Cytotoxicity against human HL-60 cells assessed as reduction in cell growth; type: functional, cell-based
[13] = Cytotoxicity against human WI-38 cells assessed as reduction in cell growth; type: toxicity, cell-based
[14] = molecular target: T1, Vascular endothelial growth factor receptor 2; assay: Inhibition of human VEGFR2 by discoverX kinome scan assay
[15] = Cytotoxicity against African green monkey Vero cells assessed as inhibition of cell growth incubated for 24 hrs by MTT assay; type: toxicity, cell-based, Chlorocebus sabaeus
HepG2 [16] = assay: Cytotoxicity against human HepG2 cells assessed as reduction in cell viability measured after 72 hrs by MTT assay; type: functional, cell-based; conditions: HepG2, 72 h
MCF7 [17] = assay: Cytotoxicity against human MCF7 cells assessed as reduction in cell viability measured after 72 hrs by MTT assay; type: functional, cell-based; conditions: MCF7, 72 h
[18] = molecular target: T1, Vascular endothelial growth factor receptor 2; assay: Inhibition of human recombinant VEGFR2 using biotinylated poly-GluTyr (4:1) as susbtrate measured for 1 hr by ELISA method
HCT-116 [19] = assay: Cytotoxicity against human HCT-116 cells assessed as reduction in cell viability measured after 72 hrs by MTT assay; type: functional, cell-based; conditions: HCT-116, 72 h
[20] = molecular target: T1, Vascular endothelial growth factor receptor 2; assay: Inhibition of VEGFR2 (unknown origin) by Z'-Lyte kinase assay
[21] = molecular target: T2, Protein deacetylase HDAC6 (Homo sapiens, UniProt Q9UBN7); assay: Inhibition of HDAC6 (unknown origin)
T2 sequence (Q9UBN7 whole entry): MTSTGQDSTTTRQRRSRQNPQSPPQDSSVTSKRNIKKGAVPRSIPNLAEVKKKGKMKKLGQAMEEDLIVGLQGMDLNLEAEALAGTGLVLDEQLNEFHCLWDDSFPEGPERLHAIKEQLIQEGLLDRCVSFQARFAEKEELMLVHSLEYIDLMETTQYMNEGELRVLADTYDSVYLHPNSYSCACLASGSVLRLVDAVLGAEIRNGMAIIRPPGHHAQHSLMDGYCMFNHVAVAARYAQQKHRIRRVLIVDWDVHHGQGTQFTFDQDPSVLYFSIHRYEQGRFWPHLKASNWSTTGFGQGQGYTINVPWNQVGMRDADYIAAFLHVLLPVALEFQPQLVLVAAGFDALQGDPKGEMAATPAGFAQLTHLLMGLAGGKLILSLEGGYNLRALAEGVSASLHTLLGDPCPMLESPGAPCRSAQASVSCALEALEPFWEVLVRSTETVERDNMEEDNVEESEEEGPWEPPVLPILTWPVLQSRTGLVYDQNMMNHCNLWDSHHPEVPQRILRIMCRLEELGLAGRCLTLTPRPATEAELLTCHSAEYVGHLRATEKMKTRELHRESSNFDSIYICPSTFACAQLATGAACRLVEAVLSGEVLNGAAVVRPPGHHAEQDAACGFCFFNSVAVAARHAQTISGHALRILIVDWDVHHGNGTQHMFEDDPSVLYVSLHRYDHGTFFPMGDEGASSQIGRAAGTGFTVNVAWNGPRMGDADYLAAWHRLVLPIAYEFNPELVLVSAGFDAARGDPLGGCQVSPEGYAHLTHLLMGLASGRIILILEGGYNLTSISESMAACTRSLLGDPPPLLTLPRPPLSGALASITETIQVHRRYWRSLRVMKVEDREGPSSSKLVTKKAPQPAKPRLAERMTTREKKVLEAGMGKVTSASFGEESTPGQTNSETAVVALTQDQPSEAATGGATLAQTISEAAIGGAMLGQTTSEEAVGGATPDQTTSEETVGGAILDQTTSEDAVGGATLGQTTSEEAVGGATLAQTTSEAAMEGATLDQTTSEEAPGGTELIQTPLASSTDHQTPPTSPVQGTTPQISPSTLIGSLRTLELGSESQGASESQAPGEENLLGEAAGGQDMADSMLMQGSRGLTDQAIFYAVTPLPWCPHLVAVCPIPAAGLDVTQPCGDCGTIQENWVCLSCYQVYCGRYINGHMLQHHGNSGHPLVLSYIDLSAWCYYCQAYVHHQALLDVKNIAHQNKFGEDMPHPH

[22] = molecular target: Vascular endothelial growth factor receptor 3 (Homo sapiens, UniProt P35916); assay: Inhibition of VEGFR3 (unknown origin)
[23] = molecular target: Vascular endothelial growth factor receptor 1 (Homo sapiens, UniProt P17948); assay: Inhibition of VEGFR1 (unknown origin)
Histone deacetylase 1 = Histone deacetylase 1 (Homo sapiens, UniProt Q13547); assay: Inhibition of HDAC1 (unknown origin)
A549 = assay: Antiproliferative activity against human A549 cells assessed as reduction in cell viability; type: functional, cell-based
NCI-H1650 = assay: Antiproliferative activity against human NCI-H1650 cells assessed as reduction in cell viability; type: functional, cell-based
NCI-H1975 = assay: Antiproliferative activity against human NCI-H1975 cells assessed as reduction in cell viability; type: functional, cell-based
NCI-H441 = assay: Antiproliferative activity against human NCI-H441 cells assessed as reduction in cell viability; type: functional, cell-based
[24] = molecular target: Serine/threonine-protein kinase B-raf (Homo sapiens, UniProt P15056, V600E); assay: Inhibition of BRAF V600E mutant (unknown origin)
[25] = molecular target: Serine/threonine-protein kinase B-raf (Homo sapiens, UniProt P15056); assay: Inhibition of wild type BRAF (unknown origin)
[26] = molecular target: T1, Vascular endothelial growth factor receptor 2; assay: Inhibition of VEGFR2 (unknown origin) incubated for 1 hr in presence of ATP by ELISA method
[27] = molecular target: T1, Vascular endothelial growth factor receptor 2; assay: Inhibition of VEGFR2 (unknown origin) by kinase profiling assay
[28] = Cytotoxicity against HUVEC cells assessed as cell growth inhibition incubated for 72 hrs by MTT assay; type: toxicity, cell-based; conditions: human

T1 sequence (P35968 whole entry): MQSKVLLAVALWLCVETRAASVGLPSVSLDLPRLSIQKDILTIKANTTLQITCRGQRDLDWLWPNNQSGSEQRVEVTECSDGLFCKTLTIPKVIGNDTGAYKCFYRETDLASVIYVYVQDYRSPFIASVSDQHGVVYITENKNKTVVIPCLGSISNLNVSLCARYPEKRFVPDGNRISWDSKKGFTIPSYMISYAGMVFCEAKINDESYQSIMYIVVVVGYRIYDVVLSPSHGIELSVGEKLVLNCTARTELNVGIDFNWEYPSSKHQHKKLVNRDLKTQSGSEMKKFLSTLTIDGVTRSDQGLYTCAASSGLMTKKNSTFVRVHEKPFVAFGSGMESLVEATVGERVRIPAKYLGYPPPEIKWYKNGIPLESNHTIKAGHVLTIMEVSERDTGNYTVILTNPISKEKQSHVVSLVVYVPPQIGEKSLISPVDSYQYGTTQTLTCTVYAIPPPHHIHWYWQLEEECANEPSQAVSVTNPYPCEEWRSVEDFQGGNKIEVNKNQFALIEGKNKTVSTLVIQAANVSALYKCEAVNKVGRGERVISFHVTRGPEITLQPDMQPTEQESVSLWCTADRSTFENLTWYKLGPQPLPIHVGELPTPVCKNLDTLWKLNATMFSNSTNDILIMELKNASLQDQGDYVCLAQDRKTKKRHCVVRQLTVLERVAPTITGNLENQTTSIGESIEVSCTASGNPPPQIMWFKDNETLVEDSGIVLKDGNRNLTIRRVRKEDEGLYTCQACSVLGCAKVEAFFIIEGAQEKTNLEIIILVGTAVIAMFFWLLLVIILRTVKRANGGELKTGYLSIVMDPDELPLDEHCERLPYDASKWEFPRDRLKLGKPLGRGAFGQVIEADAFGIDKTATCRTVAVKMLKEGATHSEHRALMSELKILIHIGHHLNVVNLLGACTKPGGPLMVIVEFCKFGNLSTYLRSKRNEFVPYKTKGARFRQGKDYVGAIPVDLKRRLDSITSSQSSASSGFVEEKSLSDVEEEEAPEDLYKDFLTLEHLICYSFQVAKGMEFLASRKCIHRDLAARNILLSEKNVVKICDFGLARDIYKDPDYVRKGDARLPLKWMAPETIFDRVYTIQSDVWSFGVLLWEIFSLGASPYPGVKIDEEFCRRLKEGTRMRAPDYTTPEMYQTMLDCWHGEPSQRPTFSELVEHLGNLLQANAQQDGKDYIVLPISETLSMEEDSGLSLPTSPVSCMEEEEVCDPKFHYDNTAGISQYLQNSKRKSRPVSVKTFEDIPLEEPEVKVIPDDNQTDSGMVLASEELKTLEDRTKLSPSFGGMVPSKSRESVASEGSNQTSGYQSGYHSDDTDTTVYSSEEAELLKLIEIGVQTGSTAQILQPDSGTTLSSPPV
Sequence of Histone deacetylase 4 (P56524 whole entry): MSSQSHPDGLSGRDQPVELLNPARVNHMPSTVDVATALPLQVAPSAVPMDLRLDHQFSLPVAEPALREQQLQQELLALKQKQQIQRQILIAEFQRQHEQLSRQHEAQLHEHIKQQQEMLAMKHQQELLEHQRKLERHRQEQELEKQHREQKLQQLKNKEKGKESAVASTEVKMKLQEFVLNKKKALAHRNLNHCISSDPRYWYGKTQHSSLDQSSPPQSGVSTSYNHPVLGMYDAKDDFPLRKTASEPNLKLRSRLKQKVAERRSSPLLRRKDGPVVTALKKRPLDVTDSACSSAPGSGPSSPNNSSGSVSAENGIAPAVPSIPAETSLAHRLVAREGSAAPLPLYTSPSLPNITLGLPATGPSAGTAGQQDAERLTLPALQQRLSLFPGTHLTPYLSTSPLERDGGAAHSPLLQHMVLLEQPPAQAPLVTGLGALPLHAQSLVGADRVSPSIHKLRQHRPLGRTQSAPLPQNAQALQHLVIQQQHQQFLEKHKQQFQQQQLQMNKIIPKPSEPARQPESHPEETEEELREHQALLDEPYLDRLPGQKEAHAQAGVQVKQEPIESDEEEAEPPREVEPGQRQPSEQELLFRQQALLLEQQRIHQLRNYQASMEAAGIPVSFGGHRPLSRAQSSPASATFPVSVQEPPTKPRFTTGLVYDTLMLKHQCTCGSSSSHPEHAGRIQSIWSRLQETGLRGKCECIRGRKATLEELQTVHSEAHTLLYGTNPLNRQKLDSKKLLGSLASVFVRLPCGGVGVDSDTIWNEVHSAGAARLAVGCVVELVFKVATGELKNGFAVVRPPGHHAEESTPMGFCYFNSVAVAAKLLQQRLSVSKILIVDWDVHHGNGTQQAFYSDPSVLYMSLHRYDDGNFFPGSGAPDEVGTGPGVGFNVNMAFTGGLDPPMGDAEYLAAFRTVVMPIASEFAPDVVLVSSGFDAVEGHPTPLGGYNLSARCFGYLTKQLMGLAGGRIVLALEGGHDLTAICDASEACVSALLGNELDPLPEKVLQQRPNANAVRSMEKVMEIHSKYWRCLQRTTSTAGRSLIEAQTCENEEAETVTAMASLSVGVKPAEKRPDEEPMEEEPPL
Sequence of Vascular endothelial growth factor receptor 1 (P17948 whole entry): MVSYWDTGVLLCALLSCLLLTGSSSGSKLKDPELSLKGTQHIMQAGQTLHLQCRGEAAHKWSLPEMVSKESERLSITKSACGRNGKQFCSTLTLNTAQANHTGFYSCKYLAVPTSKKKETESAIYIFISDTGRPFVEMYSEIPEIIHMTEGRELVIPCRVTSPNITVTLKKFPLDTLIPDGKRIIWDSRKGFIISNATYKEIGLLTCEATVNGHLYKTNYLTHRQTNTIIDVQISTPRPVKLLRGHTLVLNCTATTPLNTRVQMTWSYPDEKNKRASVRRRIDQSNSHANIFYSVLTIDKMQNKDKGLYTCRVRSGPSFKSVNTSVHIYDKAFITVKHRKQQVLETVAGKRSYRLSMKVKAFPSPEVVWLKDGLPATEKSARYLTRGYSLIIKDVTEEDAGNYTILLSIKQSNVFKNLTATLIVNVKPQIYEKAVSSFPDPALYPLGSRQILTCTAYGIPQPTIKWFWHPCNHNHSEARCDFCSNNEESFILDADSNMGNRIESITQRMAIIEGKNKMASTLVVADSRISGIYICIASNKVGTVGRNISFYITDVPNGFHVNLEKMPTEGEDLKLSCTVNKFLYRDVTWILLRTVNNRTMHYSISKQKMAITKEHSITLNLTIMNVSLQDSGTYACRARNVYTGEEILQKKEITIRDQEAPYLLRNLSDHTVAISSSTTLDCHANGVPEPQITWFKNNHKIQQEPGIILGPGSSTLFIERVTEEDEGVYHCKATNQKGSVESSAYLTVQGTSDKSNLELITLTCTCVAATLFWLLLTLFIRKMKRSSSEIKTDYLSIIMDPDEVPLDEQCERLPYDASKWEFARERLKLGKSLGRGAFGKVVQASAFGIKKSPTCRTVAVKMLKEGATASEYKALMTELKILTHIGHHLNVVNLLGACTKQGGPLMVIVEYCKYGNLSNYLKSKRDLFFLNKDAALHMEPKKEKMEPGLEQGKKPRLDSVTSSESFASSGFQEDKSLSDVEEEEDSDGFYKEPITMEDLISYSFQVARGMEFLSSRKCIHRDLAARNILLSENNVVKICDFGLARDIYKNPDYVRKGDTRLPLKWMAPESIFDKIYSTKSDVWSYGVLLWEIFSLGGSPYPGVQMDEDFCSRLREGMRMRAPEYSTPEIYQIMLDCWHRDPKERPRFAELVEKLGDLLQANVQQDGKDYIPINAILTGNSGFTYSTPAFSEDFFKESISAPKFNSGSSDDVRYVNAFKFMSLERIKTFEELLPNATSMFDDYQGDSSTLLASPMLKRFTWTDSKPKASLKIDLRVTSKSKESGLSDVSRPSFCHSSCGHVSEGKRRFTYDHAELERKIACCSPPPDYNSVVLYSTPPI
Sequence of Serine/threonine-protein kinase B-raf (Homo sapiens, UniProt P15056, V600E) (P15056 2-766 V600E limits assumed): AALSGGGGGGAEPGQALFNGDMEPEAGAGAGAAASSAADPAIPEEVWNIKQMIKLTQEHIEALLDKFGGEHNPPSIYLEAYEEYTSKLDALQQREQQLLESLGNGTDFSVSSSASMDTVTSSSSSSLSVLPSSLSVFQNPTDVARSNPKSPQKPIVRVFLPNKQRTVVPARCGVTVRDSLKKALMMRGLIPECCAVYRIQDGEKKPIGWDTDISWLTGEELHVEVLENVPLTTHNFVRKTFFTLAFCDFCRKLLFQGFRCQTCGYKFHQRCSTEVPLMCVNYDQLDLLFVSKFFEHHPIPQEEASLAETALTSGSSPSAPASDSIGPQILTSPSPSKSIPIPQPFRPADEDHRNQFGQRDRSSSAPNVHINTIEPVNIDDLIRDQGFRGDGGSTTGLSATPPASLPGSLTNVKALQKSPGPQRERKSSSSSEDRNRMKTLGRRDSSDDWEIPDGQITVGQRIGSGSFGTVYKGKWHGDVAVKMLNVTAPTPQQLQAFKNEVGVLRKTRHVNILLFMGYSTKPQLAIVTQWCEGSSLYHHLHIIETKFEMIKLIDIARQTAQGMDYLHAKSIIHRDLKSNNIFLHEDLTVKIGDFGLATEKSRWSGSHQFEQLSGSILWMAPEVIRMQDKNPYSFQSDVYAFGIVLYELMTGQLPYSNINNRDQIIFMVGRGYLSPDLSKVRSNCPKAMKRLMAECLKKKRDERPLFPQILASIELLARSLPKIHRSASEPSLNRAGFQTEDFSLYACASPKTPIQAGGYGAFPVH
Sequence of Histone deacetylase 1 (Q13547 whole entry): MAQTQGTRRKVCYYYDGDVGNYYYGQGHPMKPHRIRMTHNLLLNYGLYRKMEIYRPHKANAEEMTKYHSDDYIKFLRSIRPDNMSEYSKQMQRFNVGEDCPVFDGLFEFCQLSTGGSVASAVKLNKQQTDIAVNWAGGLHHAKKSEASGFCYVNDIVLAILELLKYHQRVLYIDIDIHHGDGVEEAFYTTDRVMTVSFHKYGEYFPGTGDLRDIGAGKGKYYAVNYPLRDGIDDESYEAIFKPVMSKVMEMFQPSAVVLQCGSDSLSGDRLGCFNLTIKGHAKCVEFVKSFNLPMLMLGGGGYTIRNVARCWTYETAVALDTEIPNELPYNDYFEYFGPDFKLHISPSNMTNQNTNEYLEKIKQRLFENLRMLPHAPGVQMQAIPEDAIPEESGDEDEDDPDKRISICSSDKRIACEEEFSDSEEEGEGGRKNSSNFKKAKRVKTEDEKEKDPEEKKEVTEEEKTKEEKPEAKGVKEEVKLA

Compound: O=C(Nc1ccccc1)Nc1ccc(Nc2ncnc3sc4c(c23)CCOC4)cc1
Activity (T47D): 85.5%
Activity (A498 [1]): 77.65%

Compound: COc1ccc(/C=N/n2c(SCC(=O)c3ccc(Cl)cc3)nnc2-c2cc3ccccc3[nH]2)cc1
pIC50 (A498 [2]): 5.66
pIC50 (CAKI-1): 6.05

Compound: CCOc1ccc(Nc2nnc3c4c(cccc24)NC(=S)N3Cc2ccccc2)cc1
pIC50 (HepG2 [3]): 6.66
LD50 [4]: > 800 mg/kg

Compound: N=c1cc(N)nc2sc(NC(=O)c3cccs3)nn12
pIC50 (MCF7 [5]): 5.07
pIC50 (PC-3 [6]): 5.11
pIC50 (HCT-116 [7]): 4.48
pIC50 (HepG2 [8]): 5.37
pIC50 [9]: 5.09

Compound: COc1ccc(C2CC(c3ccc(Cl)cc3Cl)=NN2c2nc(C)c(C(=O)Nc3ccccc3)s2)cc1OC (stereo unspecified)
pIC50 (A549): 5.53
pIC50 (NCI-H1650): 5.45
pIC50 (NCI-H1975): 5.36
pIC50 (NCI-H441): 5.42

Compound: COc1ccc(-c2cc3c(ccn4nc(-c5cccnc5)nc34)o2)cc1
pIC50 [27]: 4.41
pIC50 [14]: 4.41
IC50 at 72 h [28]: 17.4 µM

Compound: CCOC(=O)c1sc(N2N=C(c3ccc(Cl)cc3Cl)CC2c2ccc(OC)cc2)nc1C (stereo unspecified)
pIC50 (A549): 5.37
pIC50 (NCI-H1650): 5.25
pIC50 (NCI-H1975): 5.21
pIC50 (NCI-H441): 5.32

Second part, led by results:

pIC50 (Histone deacetylase 4): < 5.00
Compound: Cc1c2ccc(N(C)c3ccnc(Nc4ccc(C(=O)Nc5ccccc5N)cc4)n3)cc2nn1C

IC50 (HepG2 [10]): 17.2 µg/mL (≈ 40.3 µM)
IC50 (MCF7 [11]): 30.8 µg/mL (≈ 72.2 µM)
IC50 (PC-3 [12]): 26.1 µg/mL (≈ 61.1 µM)
Compound: CCn1c(SCC(=O)NNC(=O)c2ccccc2)nc2ccc([N+](=O)[O-])cc2c1=O

pIC50 [9]: 7.17
Compound: C/C(=N\NC(=S)Nc1ccccc1)c1nnn(-c2ccc(F)cc2)c1C
pIC50 (HL-60): 5.96
pIC50 [13]: 4.25

pIC50 [14]: 5.51
Compound: CCNC(=S)NS(=O)(=O)c1ccc(NC(=O)CSc2cc3ccccc3c(=O)n2CC)cc1

pIC50 [18]: 6.85
Compound: Cc1cc(C)nc(NS(=O)(=O)c2ccc(NN=C3C(=O)NNC3=O)cc2)n1
IC50 at 24 h [15]: 39.4 µM
pIC50 (HepG2 [16]): 5.19
pIC50 (MCF7 [17]): 4.98
pIC50 (HCT-116 [19]): 5.02

pIC50 [20]: 7.20
Compound: O=C1C(=O)N(CN2CCN(c3cc(=O)[nH]c4ccc(F)cc34)CC2)c2ccccc21

pIC50 [21]: 7.03
pIC50 (Histone deacetylase 4): < 5.00
pIC50 [22]: 7.27
pIC50 [23]: 7.74
pIC50 (Histone deacetylase 1): 6.92
pIC50 [9]: 7.80
Compound: Cc1c2ccc(Nc3ccnc(Nc4ccc(NC(=O)CCCCCCC(=O)NO)cc4)n3)cc2nn1C

pIC50 [24]: 7.20
pIC50 [25]: 7.30
pIC50 [9]: 7.31
Compound: O=C(CSc1nc2sc3c(c2c(=O)n1-c1ccc(Cl)cc1)CCCC3)NNC(=O)Nc1ccc(Cl)c(C(F)(F)F)c1

pIC50 [26]: 7.92
Compound: CNC(=O)c1nc(Nc2ccc(NC(=O)Nc3cccc(C)c3)cc2)c2ccccc2n1
